{"source": "patent US20130041142A1", "about": "“HUMAN SWEET TASTE RECEPTOR-ACTING SWEET TASTE REGULATING SUBSTANCE TO SWEET TASTE SUBSTANCE” (priority 2009, published 2013)", "target": "T1, human sweet taste receptor (hT1R2+hT1R3) (Homo sapiens, UniProt Q7RTX0+Q8TE23)", "T1 construct": "includes all portions of respective subunits, that is, all regions of a transmembrane domain; pcDNA5/FRT construct co-transfected with pOG44", "T1 sequence (Q8TE23 20-839)": "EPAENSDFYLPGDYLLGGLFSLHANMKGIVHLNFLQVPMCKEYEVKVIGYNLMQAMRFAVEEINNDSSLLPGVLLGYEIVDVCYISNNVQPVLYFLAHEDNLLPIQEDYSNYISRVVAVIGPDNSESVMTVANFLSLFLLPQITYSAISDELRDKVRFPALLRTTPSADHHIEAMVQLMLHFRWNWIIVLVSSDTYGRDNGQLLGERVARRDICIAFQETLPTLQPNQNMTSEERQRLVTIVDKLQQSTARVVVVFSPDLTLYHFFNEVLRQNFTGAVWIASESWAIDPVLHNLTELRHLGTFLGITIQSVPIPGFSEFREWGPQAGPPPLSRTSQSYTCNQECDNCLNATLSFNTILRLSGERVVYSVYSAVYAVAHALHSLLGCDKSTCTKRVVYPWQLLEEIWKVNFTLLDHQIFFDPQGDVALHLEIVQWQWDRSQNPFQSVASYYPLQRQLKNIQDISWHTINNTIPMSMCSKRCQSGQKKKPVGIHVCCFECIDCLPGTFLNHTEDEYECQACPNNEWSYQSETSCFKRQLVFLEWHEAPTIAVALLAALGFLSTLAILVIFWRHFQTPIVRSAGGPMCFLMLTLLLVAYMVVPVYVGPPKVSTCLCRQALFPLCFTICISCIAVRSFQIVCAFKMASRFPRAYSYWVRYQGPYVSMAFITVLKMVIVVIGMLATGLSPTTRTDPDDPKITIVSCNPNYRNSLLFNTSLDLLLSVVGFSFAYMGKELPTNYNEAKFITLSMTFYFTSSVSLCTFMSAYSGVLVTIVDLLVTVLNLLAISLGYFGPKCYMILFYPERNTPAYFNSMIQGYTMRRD", "T1 sequence (Q7RTX0 21-852)": "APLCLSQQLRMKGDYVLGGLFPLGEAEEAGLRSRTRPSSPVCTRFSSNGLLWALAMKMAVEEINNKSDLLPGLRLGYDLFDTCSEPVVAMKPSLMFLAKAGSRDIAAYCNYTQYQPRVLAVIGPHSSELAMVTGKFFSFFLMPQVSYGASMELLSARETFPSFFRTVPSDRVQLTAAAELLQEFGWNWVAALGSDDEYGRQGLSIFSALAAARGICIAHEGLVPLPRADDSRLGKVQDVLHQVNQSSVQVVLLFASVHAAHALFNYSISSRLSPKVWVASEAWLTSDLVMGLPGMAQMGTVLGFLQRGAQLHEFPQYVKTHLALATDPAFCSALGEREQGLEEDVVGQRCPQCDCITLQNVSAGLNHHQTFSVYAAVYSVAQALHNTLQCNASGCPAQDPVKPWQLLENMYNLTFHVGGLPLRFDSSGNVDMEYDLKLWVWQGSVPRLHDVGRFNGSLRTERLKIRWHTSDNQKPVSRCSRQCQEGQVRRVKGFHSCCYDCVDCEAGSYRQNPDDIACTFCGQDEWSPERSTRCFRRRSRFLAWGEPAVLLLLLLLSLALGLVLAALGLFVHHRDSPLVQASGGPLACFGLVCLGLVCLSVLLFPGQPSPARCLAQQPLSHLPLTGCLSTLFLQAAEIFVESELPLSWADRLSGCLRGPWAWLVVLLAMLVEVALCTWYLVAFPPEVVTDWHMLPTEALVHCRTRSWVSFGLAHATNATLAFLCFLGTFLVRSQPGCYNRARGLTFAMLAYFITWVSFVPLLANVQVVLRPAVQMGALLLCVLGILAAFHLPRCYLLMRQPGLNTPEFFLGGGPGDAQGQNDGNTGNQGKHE", "assay": "automated fluorescent calcium imaging (Fluo-4 AM, FlexStation 3) of sweet taste receptor-expressing cells", "type": "cell-based", "conditions": "for Change amount in fluorescent intensity (ΔF): 27° C., to 100 seconds", "experimental": "After cultured at 37° C. for 24 hours, the medium was removed, and replaced with 50 μl of a HEPES buffer, and […] of a HEPES buffer containing a fluorescent calcium indicator (Fluo-4 AM attached to Molecular Devices, FLIPR Ca 4 Assay Kit) was further added. Then, this was incubated at 27° C. for 45 minutes to prepare a cell to be subjected to automated fluorescent imaging. […]\nIn the same manner as that described above, […] subjected to automated fluorescent imaging, so that a final concentration of sucrose became a concentration described in Table 2, a HEPES buffer containing conc. neohesperidin dihydrochalcone was further added so that a final concentration of neohesperidin dihydrochalcone became 2 v/v %, stimulation was performed at 27° C., a fluorescent reaction (excitation at 485 nm, fluorescence at 525 nm) from immediately after addition of the solution to after 100 seconds was measured by using FlexStation 3 (Molecular Devices), and a response of a sweet taste receptor-expressing cell when neohesperidin dihydrochalcone was added to sucrose was quantitated. The vertical axis of FIG. 3 is a maximum (ΔF) of a change amount in a fluorescent intensity between immediately after stimulation and after 100 seconds from stimulation, that is, a response intensity of a cell, and the horizontal axis indicates a sucrose concentration (mM) as expressed by logarithm.", "note": "Peptide text beside a SMILES is read from it.", "data": [{"smiles": "COC(=O)[C@H](Cc1ccccc1)NC(=O)[C@@H](N)CC(=O)O", "note": "[Aspartame, aspartame] (H-Asp-Phe-OMe)", "values": [{"measurement": "Change amount in fluorescent intensity (ΔF)", "setting": "aspartame 0.167 mM alone", "result": 6.568}, {"measurement": "Change amount in fluorescent intensity (ΔF)", "setting": "aspartame 0.333 mM alone", "result": 12.578}, {"measurement": "Change amount in fluorescent intensity (ΔF)", "setting": "aspartame 0.667 mM alone", "result": 33}, {"measurement": "Change amount in fluorescent intensity (ΔF)", "setting": "aspartame 2 mM alone", "result": 72.005}]}, {"smiles": "O=C1NS(=O)(=O)c2ccccc21", "note": "[Saccharin, saccharin]", "values": [{"measurement": "Change amount in fluorescent intensity (ΔF)", "setting": "saccharin 0.167 mM alone", "result": 7.609}, {"measurement": "Change amount in fluorescent intensity (ΔF)", "setting": "saccharin 0.333 mM alone", "result": 22.936}, {"measurement": "Change amount in fluorescent intensity (ΔF)", "setting": "saccharin 0.667 mM alone", "result": 56.59}, {"measurement": "Change amount in fluorescent intensity (ΔF)", "setting": "saccharin 2 mM alone", "result": 86.194}]}, {"smiles": "OC[C@H]1O[C@@](CO)(O[C@H]2O[C@H](CO)[C@@H](O)[C@H](O)[C@H]2O)[C@@H](O)[C@@H]1O", "note": "[Sucrose, sucrose]", "values": [{"measurement": "Change amount in fluorescent intensity (ΔF)", "setting": "sucrose 3.125 mM alone", "result": 4.2}, {"measurement": "Change amount in fluorescent intensity (ΔF)", "setting": "sucrose 6.25 mM alone", "result": 4.6}, {"measurement": "Change amount in fluorescent intensity (ΔF)", "setting": "sucrose 12.5 mM alone", "result": 4.1}, {"measurement": "Change amount in fluorescent intensity (ΔF)", "setting": "sucrose 25 mM alone", "result": 5.7}, {"measurement": "Change amount in fluorescent intensity (ΔF)", "setting": "sucrose 50 mM alone", "result": 9.2}, {"measurement": "Change amount in fluorescent intensity (ΔF)", "setting": "sucrose 100 mM alone", "result": 23.3}, {"measurement": "Change amount in fluorescent intensity (ΔF)", "setting": "sucrose 200 mM alone", "result": 34.9}, {"measurement": "concentration below which a response of a sweet taste receptor cell is not observed", "setting": "sucrose alone", "result": "around 50 mM"}]}]}
